Key:
[1] = Time in therapeutic range (TTR) analysis of tacrolimus and mycophenolate; assay type: in vivo, human (kidney transplant recipients); conditions: across all visits; result in words
Experimental: Continuous variables were expressed as mean ± standard deviation, while categorical variables were presented as numbers and percentages. For normally distributed data, t-tests were utilized; for non-normally distributed data, the Mann–Whitney U test was applied. Intragroup variations between baseline and 12 weeks were analyzed using paired t-tests. Differences in the frequency of transplant outcomes were assessed using the χ^2 test or Fisher’s exact test. Differences in GI symptom questionnaire scores, assessed via e-diary surveys, were analyzed using t-tests or the Mann–Whitney U test, as appropriate. We conducted a TTR analysis for both tacrolimus and mycophenolate to evaluate the potential effects of tegoprazan on immunosuppressant stability. The predefined therapeutic range was set at […] for tacrolimus and at 1–3.5 µg/mL for mycophenolate. TTR was calculated as the proportion of time each drug level remained within the therapeutic window across the study period. All statistical analyses were performed using IBM SPSS Statistics 25 for Windows, […]. A p-value of <0.05 was considered statistically significant.

[2] = Tacrolimus blood trough level (12 h post-dose, chemiluminescent immunoassay) in the randomized trial of tegoprazan vs pantoprazole; assay type: in vivo, human (kidney transplant recipients); conditions: mean ± SD
Excerpt: This study was a prospective, open-label, randomized controlled trial conducted on KTRs receiving tacrolimus, mycophenolate, and steroids. This study was registered at the Clinical Research Information Service (CRIS), Republic of Korea (Registration No. KCT 0010481, registration date: 20 May 2025). Data analysis took place at Kyungpook National University Hospital, Republic of Korea, from August 2022 to May 2023. The trial adhered to the approval guidelines of the Institutional Review Board of Kyungpook National University Hospital (IRB No. 2022-02-013, approval date: 31 March 2022).
Patients were randomly assigned to either the P-CAB (tegoprazan 50 mg) group or the PPI (pantoprazole 20 mg) group. Enrolled KTRs were scheduled for four visits at baseline, 4, 8, and 12 weeks post-randomization. The dosage of immunosuppressants remained unchanged throughout the 12-week study period. Blood tests, including measurements of immunosuppressant trough levels, serum creatinine levels, estimated glomerular filtration rate (eGFR), and vital signs, were conducted at each visit.
The primary outcome was to compare changes in drug concentrations of tacrolimus and mycophenolate following the administration of tegoprazan in KTRs.
Trough levels of tacrolimus and mycophenolate were measured at 12 h post-dose, following standard clinical practice for therapeutic drug monitoring in transplant recipients. Blood samples were collected at scheduled morning visits, and the 12 h interval was confirmed using electronic pillbox adherence data or patient interviews. Tacrolimus concentrations were measured using the Dimension® TAC Flex® reagent cartridge (Siemens Healthcare Diagnostics Inc., Newark, NJ, USA) on the Siemens Dimension® Integrated Chemistry System, employing a homogeneous chemiluminescent immunoassay (CLIA) method. Mycophenolic acid concentrations were measured using the Dimension® MPA Flex® reagent cartridge (Siemens Healthcare Diagnostics Inc., Newark, USA) on the same system, based on a particle-enhanced turbidimetric inhibition immunoassay (PETINIA) method. All assays were conducted in the Department of Laboratory Medicine at the study hospital.

[3] = result in words, cited from earlier work

Row | Compound | Time in therapeutic range (TTR), P-CAB vs PPI group [1] | Tacrolimus trough level ([2]; P-CAB group (tegoprazan 50 mg, n = 26), Baseline) | Tacrolimus trough level ([2]; P-CAB group (tegoprazan 50 mg, n = 26), Week 4) | Tacrolimus trough level ([2]; P-CAB group (tegoprazan 50 mg, n = 26), Week 8) | Tacrolimus trough level ([2]; P-CAB group (tegoprazan 50 mg, n = 26), Week 12) | Tacrolimus trough level ([2]; PPI group (pantoprazole 20 mg, n = 25), Baseline) | Tacrolimus trough level ([2]; PPI group (pantoprazole 20 mg, n = 25), Week 4) | Tacrolimus trough level ([2]; PPI group (pantoprazole 20 mg, n = 25), Week 8) | Tacrolimus trough level ([2]; PPI group (pantoprazole 20 mg, n = 25), Week 12) | Effect on tacrolimus concentration ([3]; KTRs, switching from rabeprazole to vonoprazan, two retrospective studies) | Effect on tacrolimus trough levels ([3]; conversion from rabeprazole to vonoprazan, regardless of CYP3A5 genotypes)
1 | C=CC[C@@H]1/C=C(\C)C[C@H](C)C[C@H](OC)[C@H]2O[C@@](O)(C(=O)C(=O)N3CCCC[C@H]3C(=O)O[C@H](/C(C)=C/[C@@H]3CC[C@@H](O)[C@H](OC)C3)[C@H](C)[C@@H](O)CC1=O)[C@H](C)C[C@@H]2OC [Tacrolimus, tacrolimus] | comparable between the two groups | 5.0 ± 1.6 ng/mL | 5.3 ± 1.3 ng/mL | 6.3 ± 1.9 ng/mL | 5.5 ± 1.6 ng/mL | 5.4 ± 1.4 ng/mL | 5.5 ± 1.6 ng/mL | 5.7 ± 2.4 ng/mL | 5.8 ± 2.0 ng/mL |  | 
2 | CNCc1cc(-c2ccccc2F)n(S(=O)(=O)c2cccnc2)c1 [vonoprazan] |  |  |  |  |  |  |  |  |  | increased | did not alter
